Data as given in patent publication US9796674B2, “Benzyl urea derivatives for activating TGF-beta signaling” (THE BOARD OF TRUSTEES OF THE LELAND STANFORD JUNIOR …, priority 2013, dated 2017).
“Also recorded” adds a separate entry of the source. Where two headings read alike, the source gives them in different places.

How the values were obtained:
[1] = tested on: human macrophages differentiated from THP-1 monocytic cell lines; assay: Fibrillar Aβ clearance by THP-1 macrophages; format: cell-based; conditions: 24 h, 2, 5, or 10 μM
Procedure: SRI-011381 promotes Aβ clearance in cell culture: TGF-β1 promotes Aβ clearance in a microglia cell line. To test whether SRI-011381 has similar properties, mouse J774A.1 macrophages and human macrophages differentiated from THP-1 monocytic cell lines were treated with fibrillar Aβ in the absence or presence of compound (2, 5, or 10 μM) for 24 h. Conditioned medium was harvested and the remaining Aβ that was not phagocytosed by macrophages was quantified by Aβ ELISA.
FIGS. 4A and 4B present data from experiments in which human macrophages differentiated from THP-1 monocytic cell lines and mouse J774A.1 macrophages were incubated with fibrillar Aβ in the absence or presence of compound (2 or 5 μM) for 24 h. Conditioned medium was harvested and the remaining Aβ was quantified by Aβ ELISA. The collected medium (FIGS. 4C-4D) was added to N2A-APP-Swe cells (mouse Neuro-2A neuroblastoma cells stably expressing Swedish APP695) and incubated for 24 h. Neurotoxicity was quantified by an MTS Assay.
Mouse J774A.1 macrophages and human macrophages that were differentiated from THP-1 monocytic cell lines were treated with fibrillar Aβ42 in the absence or presence of SRI-011382 or its derivative compounds (2, 5, or 10 μM) for 24 h. Conditioned medium was harvested and the remaining Aβ42 that was not phagocytosed by macrophages was quantified by Aβ42 ELISA kit (Invitrogen). […]

GFAP-luc mice = assay: Kainic acid lesion in GFAP-luc mice, bioluminescence; format: in vivo, mouse; conditions: kainic acid 20 mg/kg
Procedure: FIGS. 5A-5B show GFAP-luc mice (2-month-old) lesioned with kainic acid (20 mg/kg). Bioluminescence was recorded longitudinally at indicated time points in each mouse. Representative images showing increased bioluminescence signals over the brain after kainic acid injury (left panel) and the reduction by SRI-011381 (381) treatment (right panel) (FIG. 5A). Bioluminescence is expressed as fold induction over baseline, which was measured 1 day before kainic acid administration for each mouse (FIG. 5B). Bars are mean±SEM (n=4-7 mice). The mice were sacrificed 5 days later. Brains were removed, fixed with paraformaldehyde, sectioned and stained with cresyl violet, or immunohistochemical methods. […] Bars are mean±SEM (n=4-7 mice/group) and the asterisk signifies P<0.05 by unpaired t test.

[2] = Single-dose pharmacokinetics in female FVB mice; format: in vivo, mouse; conditions: for Kp at 4 h: read-out: Brain to Plasma concentration ratio at 4 h
Procedure: Pharmacokinetics of SRI-011381 after single intravenous, intraperitoneal, or oral administration in female FVB mice: The objective of this study was to determine the single-dose pharmacokinetics of SRI-011381 in plasma and brain. Female FVB/NJ mice were administered the test article by intravenous (iv, 10 mg/kg), intraperitoneal (ip, 30 mg/kg), and oral gavage (po, 50 mg/kg) dose routes. The compound was formulated in 10% DMSO:15% Solutol:75% sterile water. Plasma and brain were collected at various time points up to 24 h and analyzed by LC/MS for determination of SRI-011381 levels. FIGS. 7A and 7B summarize SRI-011381 levels in plasma and brain, and Tables 4 and 5 list the results of the pharmacokinetic analysis.

[3] = female, FVB/NJ, mouse, brain, ip, 30 mg/kg
[4] = female, FVB/NJ, mouse, brain, iv, 10 mg/kg
[5] = female, FVB/NJ, mouse, brain, po, 50 mg/kg
[6] = female, FVB/NJ, mouse, plasma, ip, 30 mg/kg
[7] = female, FVB/NJ, mouse, plasma, iv, 10 mg/kg
[8] = female, FVB/NJ, mouse, plasma, po, 50 mg/kg

With `O=C(NC1CCCCC1)N(Cc1ccccc1)CC1CCNCC1` [SRI-011381, 1-Benzyl-3-cyclohexyl-1-(piperidin-4-ylmethyl)urea] the “fibrillar Aβ clearance” value [1] was “promoted fibrillar Aβ clearance; also recorded: promoted fibrillar Aβ42 clearance”, the “fibrillar Aβ clearance” value ([1]; listed as SRI-11381) was “promote fibrillar Aβ42 clearance” and the “bioluminescence signals over the brain after kainic acid injury” value (GFAP-luc mice) was “reduction”. It also gave a Kp ([2]; female, FVB/NJ, mouse, brain, intraperitoneal, time points after about 0.5 h (iv) and about 1.5 h (po and ip), read-out: brain-to-plasma concentration ratio) of over 0.5, a Cmax [2, 3] of 348 ± 33 ng/mL and a Tmax [2, 3] of 15 min. It also gave a Kp at 4 h [2, 3] of 1.65, a Cmax [2, 4] of 231 ± 106 ng/mL and a Tmax [2, 4] of 15 min. The Kp at 4 h [2, 4] was 12.5, the Cmax [2, 5] was 157 ± 16 ng/mL and the Tmax [2, 5] was 60 min. The Kp at 4 h ([2]; female, FVB/NJ, mouse, brain, po, 50 mg/kg, p.o.) was 0.89, the Kp ([2]; female, FVB/NJ, mouse, brain/plasma, ip, 30 mg/kg, values at the brain T, read-out: Brain-to-plasma ratio) was 0.07 and the Kp ([2]; female, FVB/NJ, mouse, brain/plasma, iv, 10 mg/kg, values at the brain T, read-out: Brain-to-plasma ratio) was 0.28. It also gave a Kp ([2]; female, FVB/NJ, mouse, brain/plasma, po, 50 mg/kg, values at the brain T, read-out: Brain-to-plasma ratio) of 0.19, a clearance ([2]; female, FVB/NJ, mouse, plasma, intraperitoneal, extravascular estimates (ip and po) based on F, read-out: Cl (converted)) of about 150 mL/min/kg and a Vd ([2]; female, FVB/NJ, mouse, plasma, intraperitoneal, extravascular estimates (ip and po) based on F, read-out: apparent volume of distribution V) of 8 to 13 L/kg. It also gave a half-life ([2]; female, FVB/NJ, mouse, plasma, intravenous, intraperitoneal, oral, read-out: elimination half-life) of under 60 min, an AUC(0-inf) [2, 6] of 4160 ng·h/mL and an AUC(0-t) [2, 6] of 4110 ± 214 ng·h/mL. For the same compound, the Cmax [2, 6] was 6810 ± 720 ng/mL, the Tmax [2, 6] was 4.98 min and the half-life ([2]; female, FVB/NJ, mouse, plasma, ip, 30 mg/kg, read-out: t1/2 (converted)) was 35.4 min. The AUC(0-inf) [2, 7] was 1080 ng·h/mL, the AUC(0-t) [2, 7] was 1070 ± 129 ng·h/mL and the Cmax [2, 7] was 1170 ± 415 ng/mL. It also gave a Tmax [2, 7] of 4.98 min, a clearance ([2]; female, FVB/NJ, mouse, plasma, iv, 10 mg/kg, read-out: CI (clearance) (converted)) of 154 mL/min/kg and a half-life ([2]; female, FVB/NJ, mouse, plasma, iv, 10 mg/kg, read-out: t1/2 (converted)) of 34.2 min. For the same compound, the AUC(0-inf) [2, 8] was 2600 ng·h/mL, the AUC(0-t) [2, 8] was 2600 ± 374 ng·h/mL and the Cmax [2, 8] was 2950 ± 1240 ng/mL. For the same compound, the Tmax [2, 8] was 10 min, the bioavailability ([2]; female, FVB/NJ, mouse, plasma, po, 50 mg/kg, plasma, po, 50 mg/kg, read-out: F (oral bioavailability)) was about 50% and the half-life ([2]; female, FVB/NJ, mouse, plasma, po, 50 mg/kg, read-out: t1/2 (converted)) was 58.2 min. For the same compound, the AUC(0-t) ([2]; female, FVB/NJ, mouse, brain, ip, 30 mg/kg, AUC from 0.25 to 4 h) was 740 ± 32 ng·h/mL, the AUC(0-t) ([2]; female, FVB/NJ, mouse, brain, iv, 10 mg/kg, AUC from 0.25 to 4 h) was 738 ± 89 ng·h/mL and the AUC(0-t) ([2]; female, FVB/NJ, mouse, brain, po, 50 mg/kg, AUC from 0.5 to 4 h) was 416 ± 33 ng·h/mL. The “CI (clearance)” value ([2]; plasma, ip, 30 mg/kg) was 154.3 mL/min/kg, the F ([2]; plasma, ip, 30 mg/kg) was 128% and the V ([2]; plasma, ip, 30 mg/kg) was 7.875 L/kg. For the same compound, the F ([2]; plasma, iv, 10 mg/kg) was 100%, the V ([2]; plasma, iv, 10 mg/kg) was 7.669 L/kg and the V ([2]; plasma, po, 50 mg/kg) was 13.012 L/kg.
